Data reported in patent publication US11873291B2, “Quinoline cGAS antagonist compounds” (ImmuneSensor Therapeutics, Inc., priority 2020, dated 2024).

target: T1, recombinant human cGAS (aa147-522) (Homo sapiens, UniProt Q8N884); test: In vitro inhibition assay of cGAS activity (ATP consumption, KinaseGlo Max); type: biochemical; settings: Table 2, read-out: cGAS Inhibition Results IC50
T1 construct: recombinant human cGAS (aa147-522); His6-SUMO (cleaved yes); made in house; host or cells: E. coli BL21/pLys
T1 sequence (Q8N884 147-522): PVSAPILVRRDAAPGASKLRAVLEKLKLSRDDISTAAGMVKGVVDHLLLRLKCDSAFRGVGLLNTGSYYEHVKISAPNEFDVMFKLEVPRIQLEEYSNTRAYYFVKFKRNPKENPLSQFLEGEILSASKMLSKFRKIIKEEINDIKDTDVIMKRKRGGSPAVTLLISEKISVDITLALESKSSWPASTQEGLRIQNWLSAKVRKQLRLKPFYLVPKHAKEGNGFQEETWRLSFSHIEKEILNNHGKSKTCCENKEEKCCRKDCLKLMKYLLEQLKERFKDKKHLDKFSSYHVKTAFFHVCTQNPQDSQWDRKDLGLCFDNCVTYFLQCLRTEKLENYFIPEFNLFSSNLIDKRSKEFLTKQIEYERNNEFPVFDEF
Experimental: Expression and Purification of Recombinant cGAS Protein: cDNA encoding full-length or amino acids […] of human cGAS was inserted into a modified pET28a vector containing an in-frame His6-SUMO tag. The E. coli strain BL21/pLys harboring the plasmid was induced with 0.5 mM IPTG at 18° C. overnight. His6-SUMO tag was removed by a SUMO protease digestion following purification of the His6-SUMO-cGAS as described previously (Sun et al, 2013, Science 339, 786).
In vitro inhibition assay of cGAS activity: A 60 μL mixture containing 20 mM Tris-Cl, pH 7.5, 5 mM MgCl2, 0.2 mg/mL BSA, 0.01 mg/mL Herring testis DNA, 6.6 μM ATP, 0.1 mM GTP, 1.5 μg/mL of recombinant human cGAS (aa147-522) and serial dilutions of a test compound in DMSO was added to a 96-well plate and incubated at 37° C. for 20 minutes. At the end of reaction, 40 μL of KinaseGlo Max (Promega) was added and chemiluminescence was measured with a luminometer. Inhibitory effect of a compound is evaluated by plotting percentage of ATP consumption against logarithm of compound concentrations. IC50 value was calculated using GraphPad Prism 8 (GraphPad Software, Inc.).
The letter codes for cGAS IC50 include: A (<2 μM); B (2-30 μM); C (>30 μM).

| SMILES | IC50 [µM] |
| --- | --- |
| Clc1ccc2c(-c3cncnc3)cc(-c3ccccc3)nc2c1 [I-71] | > 30 |
| NS(=O)(=O)CC1CCCCN1c1cc(-n2ccnc2)c2ccc(Cl)c(Cl)c2n1 (stereo not drawn) [I-368] | 2 to 30 |
| CN(CCC(=O)NCc1ccccc1)c1cc(-c2cn[nH]c2)c2ccc(Cl)c(Cl)c2n1 [I-193, N-benzyl-3-((7,8-dichloro-4-(1H-pyrazol-4-yl)quinolin-2-yl)(methyl)amino)propenamide] | 2 to 30 |
| Cc1cc(NC2CCNC2=O)c2ccc(Cl)c(Cl)c2n1 (stereo not drawn) [I-315] | > 30 |
| Clc1ccc2c(-n3ccnc3)cc(Oc3ccccc3)nc2c1 [I-278] | 2 to 30 |
| O=C(O)[C@@H]1CN(c2cc(-n3ccnc3)c3ccc(Cl)cc3n2)CC[C@@H]1O [I-136] | 2 to 30 |
| O=C(O)c1cc(-c2cc(-n3ccnc3)c3ccc(Cl)cc3n2)c[nH]1 [I-56, 4-(7-chloro-4-(1H-imidazol-1-yl)quinolin-2-yl)-1H-pyrrole-2-carboxylic acid] | 2 to 30 |
| CN(CCN1CCOCC1)c1cc(-c2cn[nH]c2)c2ccc(Cl)c(Cl)c2n1 [I-214] | 2 to 30 |
| Brc1ccc2c(-n3nccn3)ccnc2c1 [I-419] | > 30 |
| Cc1cc(NCCO)c2ccc(Cl)c(Cl)c2n1 [I-304] | > 30 |
| Cc1cccc2nc(NCCS(N)(=O)=O)cc(-c3cn[nH]c3)c12 [I-267] | > 30 |
| O=C(O)c1cccc(Oc2cc(-n3ccnc3)c3ccc(Cl)cc3n2)c1 [I-282] | 2 to 30 |
| O=C(O)c1cc(-c2cc(-n3ccnc3)c3ccc(Cl)cc3n2)ccc1O [I-16, 5-(7-chloro-4-(1H-imidazol-1-yl)quinolin-2-yl)-2-hydroxybenzoic acid] | > 30 |
| Brc1ccc2c(-n3ccnc3)ccnc2c1 [I-412] | 2 to 30 |
| Brc1ccc2nccc(-n3ccnc3)c2c1 [I-409] | > 30 |
| O=C(O)C1CCN(c2cc(-n3ccnc3)c3ccc(Cl)cc3n2)CC1 [I-127] | 2 to 30 |
| Cc1cc(N2CCNC(=O)C2)c2ccc(Cl)c(Cl)c2n1 [I-302] | > 30 |

| SMILES | IC50 [µM] |
| --- | --- |
| Oc1ccc(-c2cc(-n3ccnc3)c3ccc(Cl)cc3n2)cn1 [I-58] | > 30 |
| NS(=O)(=O)O[C@H]1CCCN(c2cc(-n3ccnc3)c3ccc(Cl)c(Cl)c3n2)C1 [I-119, (S)-1-(7,8-dichloro-4-(1H-imidazol-1-yl)quinolin-2-yl)piperidin-3-yl sulfamate] | 2 to 30 |
| Clc1ccc2c(-c3cn[nH]c3)cc(NCC3COCCN3)nc2c1Cl (stereo not drawn) [I-217] | > 30 |
| O=C(O)c1ccccc1-c1cc(-n2ccnc2)c2ccc(Cl)cc2n1 [I-13] | > 30 |
| O=C1CC(Nc2cc(-n3ccnc3)c3ccc(Cl)cc3n2)CCN1 (stereo not drawn) [I-365] | > 30 |
| Cc1cn(-c2cc(-c3ccccc3)nc3cc(Cl)ccc23)cn1 [I-60] | > 30 |
| CC(C)[C@H](CS(N)(=O)=O)Nc1cc(-n2ccnc2)c2ccc(Cl)c(Cl)c2n1 [I-209] | > 30 |
| CC(C)N(CCN1CCOCC1)c1cc(-c2cn[nH]c2)c2ccc(Cl)c(Cl)c2n1 [I-358] | 2 to 30 |
| OCC1CN(c2cc(-n3ccnc3)c3ccc(Cl)cc3n2)CCCO1 (stereo not drawn) [I-99] | 2 to 30 |
| O=C(O)[C@@H]1CCN1c1cc(-c2cn[nH]c2)c2ccc(Cl)c(Cl)c2n1 [I-352] | 2 to 30 |
| CN(CC(N)=O)c1cc(-n2ccnc2)c2ccc(Cl)c(Cl)c2n1 [I-179] | 2 to 30 |
| Cc1ccc2c(-c3cn[nH]c3)cc(NCCS(N)(=O)=O)nc2c1 [I-266] | > 30 |
| COc1cccc(-c2cc(-n3ccnc3)c3ccc(Br)cc3n2)c1 [I-382] | 2 to 30 |
| c1ccc2c(-n3cccn3)ccnc2c1 [I-413] | > 30 |
| CC(CNc1cc(-n2ccnc2)c2ccc(Cl)c(Cl)c2n1)S(N)(=O)=O (stereo not drawn) [I-210] | 2 to 30 |
| Clc1ccc2c(-n3ccnc3)cc(NCCN3CCOCC3)nc2c1 [I-354] | > 30 |
| NC[C@@H]1CCCN1c1cc(-n2ccnc2)c2ccc(Cl)c(Cl)c2n1 [I-153, (S)-(1-(7,8-dichloro-4-(1H-imidazol-1-yl)quinolin-2-yl)pyrrolidin-2-yl)methanamine] | 2 to 30 |

Results, then the compound that gave them:

| IC50 [µM] | SMILES |
| --- | --- |
| 2 to 30 | Clc1ccc2c(-n3ccnc3)cc(N3CCC(c4nn[nH]n4)C3)nc2c1 (stereo not drawn) [I-155] |
| < 2 | CN(CCCO)c1cc(-c2cn[nH]c2)c2ccc(Cl)c(Cl)c2n1 [I-248] |
| < 2 | COc1ccc(-c2cc(-c3cn[nH]c3)c3ccc(Cl)c(Cl)c3n2)cc1C(=O)O [I-427] |
| < 2 | CN(CCN(C)S(N)(=O)=O)c1cc(-n2ccnc2)c2ccc(Cl)c(Cl)c2n1 [I-224] |
| < 2 | CN(CCC(=O)O)c1cc(-n2ccnc2)c2ccc(Cl)c(Cl)c2n1 [I-183] |
| < 2 | NS(=O)(=O)c1cccc(-c2cc(-n3ccnc3)c3ccc(Cl)c(Cl)c3n2)c1 [I-46] |
| < 2 | COc1c(Br)ccc2c(-n3ccnc3)cc(-c3cccc(C(=O)O)c3)nc12 [I-48, 3-(7-Bromo-4-(1H-imidazol-1-yl)-8-methoxyquinolin-2-yl)benzoic acid] |
| < 2 | COc1ccc(-c2cc(-n3ccnc3)c3ccc(Cl)c(Cl)c3n2)cc1O [I-41] |
| < 2 | Clc1ccc2c(-n3ccnc3)cc(-c3cn[nH]c3)nc2c1Cl [I-378] |
| < 2 | O=C(O)CCS(=O)(=O)NC[C@@H]1CCCN1c1cc(-n2ccnc2)c2ccc(Cl)c(Cl)c2n1 [I-335] |
| < 2 | O=C(O)CCNC(=O)[C@H]1CN(c2cc(-c3cn[nH]c3)c3ccc(Cl)c(Cl)c3n2)CCO1 [I-344] |
| < 2 | O=C(O)c1cccc(-c2cc(-n3ccnc3)c3ccc(Cl)cc3n2)c1 [I-6, 3-(7-Chloro-4-(1H-imidazol-1-yl)quinolin-2-yl)benzoic acid] |
| < 2 | O=C(O)CCN(CC(=O)O)c1cc(-n2ccnc2)c2ccc(Cl)c(Cl)c2n1 [I-175] |
| < 2 | CC(=O)N[C@@H]1C[C@@H](C(=O)O)N(c2cc(-n3ccnc3)c3ccc(Cl)c(Cl)c3n2)C1 [I-347] |
| < 2 | Nc1cc(C(=O)O)cc(-c2cc(-n3ccnc3)c3ccc(Cl)cc3n2)c1 [I-22, 3-amino-5-(7-chloro-4-(1H-imidazol-1-yl)quinolin-2-yl)benzoic acid] |
| < 2 | N#CCCO[PH](=O)OCC1CCCN(c2cc(-c3cn[nH]c3)c3ccc(Cl)c(Cl)c3n2)C1 (stereo not drawn) [I-396] |
| < 2 | O=C(O)C1CN(c2cc(-n3ccnc3)c3ccc(Cl)c(Cl)c3n2)CCN1CCO (stereo not drawn) [I-81] |
| < 2 | CN(CCO)c1cc(-c2cn[nH]c2)c2ccc(Cl)c(Cl)c2n1 [I-240] |
| < 2 | NS(=O)(=O)C1CCN(c2cc(-n3ccnc3)c3ccc(Cl)c(Cl)c3n2)C1 (stereo not drawn) [I-150] |
| < 2 | O=S(=O)(O)C1CCCN(c2cc(-n3ccnc3)c3ccc(Cl)c(Cl)c3n2)C1 (stereo not drawn) [I-115] |
| < 2 | CN(CCC(=O)NCCO)c1cc(-c2cn[nH]c2)c2ccc(Cl)c(Cl)c2n1 [I-194] |
| < 2 | O=C(O)CC1COCCN1c1cc(-n2ccnc2)c2ccc(Cl)c(Cl)c2n1 (stereo not drawn) [I-94] |

same assay, conditions: Table 3, read-out: cGAS Inhibition Results IC50

| SMILES | IC50 [µM] |
| --- | --- |
| CC(C)[C@H](NC(=O)C[C@@H]1CCCN1c1cc(-n2ccnc2)c2ccc(Cl)c(Cl)c2n1)C(=O)O [I-526] | < 2 |
| O=C(C[C@@H]1CCCN1c1cc(-n2ccnc2)c2ccc(Cl)c(Cl)c2n1)N[C@@H](C(=O)O)c1ccccc1 [I-528] | > 30 |
| CC(C)N(CCCOc1ccncc1C(=O)O)c1cc(-n2ccnc2)c2ccc(Cl)c(Cl)c2n1 [I-851] | 2 to 30 |
| CN(CCNC(=O)CCC(=O)O)c1cc(-n2ccnc2)c2ccc(Cl)c(Cl)c2n1 [I-616] | < 2 |
| O=C(O)C1CN(C(=O)C[C@@H]2CCCN2c2cc(-n3ccnc3)c3ccc(Cl)c(Cl)c3n2)CCO1 (stereo partly drawn) [I-538] | < 2 |
| COC(=O)[C@H]1[C@@H](O)CCN1c1cc(-n2ccnc2)c2ccc(Cl)c(Cl)c2n1 [I-500] | 2 to 30 |
| O=C(O)[C@@H]1CC[C@@H](CCO)N1c1cc(-n2ccnc2)c2ccc(Cl)c(Cl)c2n1 [I-783, (2S,5S)-1-(7,8-dichloro-4-(1H-imidazol-1-yl)quinolin-2-yl)-5-(2-hydroxyethyl)pyrrolidine-2-carboxylic acid] | < 2 |
| O=C(O)COC[C@@H]1[C@@H](O)CCN1c1cc(-n2ccnc2)c2ccc(Cl)c(Cl)c2n1 [I-697] | < 2 |
| N[C@@H]1C[C@@H](C(=O)O)N(c2cc(-n3ccnc3)c3ccc(Cl)c(Cl)c3n2)C1 [I-519] | < 2 |
| CN(CCNS(=O)(=O)c1ccc(C(=O)O)cc1)c1cc(-n2ccnc2)c2ccc(Cl)c(Cl)c2n1 [I-612] | 2 to 30 |
| CCOC(=O)[C@@H]1CC[C@H](C)N1c1cc(-n2ccnc2)c2ccc(Cl)c(Cl)c2n1 [I-460] | 2 to 30 |
| O=C(C[C@@H]1CCCN1c1cc(-n2ccnc2)c2ccc(Cl)c(Cl)c2n1)NC1CCCNC1=O (stereo partly drawn) [I-544] | 2 to 30 |
| CC(C)N(CCCOc1ccccc1C(=O)O)c1cc(-n2ccnc2)c2ccc(Cl)c(Cl)c2n1 [I-852] | 2 to 30 |
| COC[C@@H]1CC[C@@H](C(=O)O)N1c1cc(-n2ccnc2)c2ccc(Cl)c(Cl)c2n1 [I-463] | 2 to 30 |
| O=C(O)C12CC(Nc3cc(-n4ccnc4)c4ccc(Cl)c(Cl)c4n3)(C1)C2 [I-513] | < 2 |
| CC(C)(C)c1ccc2c(-n3ccnc3)cc(N3CCC[C@H]3COCCC(=O)O)nc2c1 [I-858] | > 30 |
